# Marks after values point to notes of the source that are not given here.
# Experiments:
# Human dendritic cells [1] = experiment: Increase in cell size and granularity of DC (flow cytometry); assay type: cell-based; conditions: 100 μg polynucleotide, 48 hours
# Summary of the method: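 Human dendritic cells from three donors, seeded at 1.0×10^5 cells/ml and exposed 48 hours to 100 μg of 6-base 3-OH, 5-OH polynucleotides. Flow cytometry; percentage of cells with forward scatter >500 units and side scatter >400 units.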
# Human dendritic cells [2] = experiment: Induction of IFN-gamma production by DC (ELISA); assay type: cell-based; conditions: 100 μg, 48 hours
# Summary of the method: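 Dendritic cells from three donors (1.0×10^5 cells/ml) were incubated 48 h with 100 μg of each polynucleotide. IFN-gamma in culture supernatant was measured by ELISA. Values are fold increase over untreated control cells.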
# Human dendritic cells [3] = experiment: CD40 levels at the DC cell surface (flow cytometry); assay type: cell-based; conditions: 100 μg, 48 hours
# Summary of the method: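 DCs from two donors, seeded at 1.0×10^5 cells/ml, were exposed for 48 h to 100 μg of 6-base polynucleotides. Surface CD40 was then measured by flow cytometry with a FITC anti-CD40 mAb. Values are the percentage of CD40^hi DC, meaning above-baseline CD40 expression.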
# Human dendritic cells [4] = experiment: CD80 levels at the DC cell surface (flow cytometry); assay type: cell-based; conditions: 100 μg, 48 hours
# Summary of the method: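 Human dendritic cells from two donors, at 1.0×10^5 cells/ml, were exposed 48 h to 100 μg of 6-base polynucleotides. Surface CD80 was measured by flow cytometry with a FITC anti-CD80 antibody. Values are % CD80^hi DC.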
# Human dendritic cells [5] = experiment: OX-2 levels at the DC cell surface (flow cytometry); assay type: cell-based; conditions: DC from individual A, 48 hours
# Procedure: Human dendritic cells were obtained from Clonetics (San Diego, Calif., USA) and were cultured in the medium recommended by Clonetics. DC were obtained from three different individuals (see Table 1). Major histocompatability typing was performed on each of these individuals and several of the HLA (human leukocyte antigens) types are shown.
# DC from individual A were seeded in 1.0 ml at 1.0×10^5 cells/ml in 6-well flat-bottomed tissue culture plates for 48 hours with 1, 10 or 100 μg of 6 base N3A or N6A polynucleotides. The level of OX-2 at the cell surface was determined after 48 hours of incubation by flow cytometry using a FITC-conjugated monoclonal antibody directed to OX-2 (BioSPARK, Greenwich, Conn., USA) and analyzed by CELLQuest Pro. […] Results are expressed as the percentage of OX-2^hi DC following treatment.
# female BALB/C mice = experiment: Oral vaccination with hepatitis surface antigen, anti-HbsAg ELISA; assay type: in vivo; conditions: oral day 0, 7, 14, 450 nm; for IgA total at 1:2 dilution, mean ± SD: gut washes day 21; for Total IgG at 1:32 dilution, mean ± SD: plasma day 21
# Procedure: Immunization with recombinant hepatitis B surface antigen combined with N6A or N6B polynucleotide was conducted on 6-8 week old female BALB/C mice (Charles River, St-Constant, Qc, Canada). Each mouse (5 mice per group) has received orally a solution containing: Saline (Group 1), HbsAg 10 μg (Group 2), HbsAg 10 μg+N6A 1 μg (Group 3), HbsAg 10 μg+N6A 10 μg (Group 4), HbsAg 10 μg+N6A 100 μg (Group 5), HbsAg 10 μg+N6B 1 μg (Group 6), HbsAg 10 μg+N6B 10 μg (Group 7) and HbsAg 10 μg+N6B 100 μg (Group 8) in a total volume of 50 μl at day 0, 7 and day 14. Plasma and gut washes were recovered at day 21. Gut washes (for IgA determination) were obtained by gently pipetting 0.2 ml of PBS containing protease inhibitors (10 μg pepstatin, 10 μg leupeptin, 10 μg antipain and 50 μg benzamidine).
# Antibodies specific to HbsAg were detected and quantified by ELISA. Briefly, a solid phase of HbsAg protein (1.0 μg per well, overnight at 4° C.) was used to capture anti-HbsAg in the plasma or in the gut washes (1 hour at 37° C.), which were then detected with horseradish peroxidase-conjugated goat anti-mouse IgA (for gut washes) and goat anti-mouse total IgG (for plasma) following the instructions of the manufacturer (Clonetyping system, Southern Biotechnology Inc.). Data are expressed in Table 14 in OD (450 nm) as the mean±SD of 5 mice per group. […]
# [6] = HbsAg 10 μg + polynucleotide 1 μg
# [7] = HbsAg 10 μg + polynucleotide 10 μg
# [8] = HbsAg 10 μg + polynucleotide 100 μg
substance,measurement,setting,value
5′GGGAGG3′ [N6A] (unmodified DNA),Percentage of DC showing a FCS > 500 units and a SSC > 400 units,Human dendritic cells [1]; DC isolated from individual A,9%
same,Percentage of DC showing a FCS > 500 units and a SSC > 400 units,Human dendritic cells [1]; DC isolated from individual B,22%
same,Percentage of DC showing a FCS > 500 units and a SSC > 400 units,Human dendritic cells [1]; DC isolated from individual C,21%
same,IFN-gamma production by DC (fold increase compared to untreated DC),Human dendritic cells [2]; DC isolated from individual A,1.0 fold
same,IFN-gamma production by DC (fold increase compared to untreated DC),Human dendritic cells [2]; DC isolated from individual B,1.0 fold
same,IFN-gamma production by DC (fold increase compared to untreated DC),Human dendritic cells [2]; DC isolated from individual C,1.0 fold
same,The percentage of CD40^hi DC following treatment,Human dendritic cells [3]; DC from individual B,35** %
same,The percentage of CD40^hi DC following treatment,Human dendritic cells [3]; DC from individual C,15%
same,The percentage of CD80^hi DC following treatment,Human dendritic cells [4]; DC from individual B,15%
same,The percentage of CD80^hi DC following treatment,Human dendritic cells [4]; DC from individual C,17%
same,The percentage of OX-2^hi DC following treatment,Human dendritic cells [5]; 1.0 μg,64%
same,The percentage of OX-2^hi DC following treatment,Human dendritic cells [5]; 10.0 μg,62%
same,The percentage of OX-2^hi DC following treatment,Human dendritic cells [5]; 100.0 μg,64%
same,"IgA total at 1:2 dilution, mean ± SD",female BALB/C mice; [6],0.662 ± 0.166 OD
same,"Total IgG at 1:32 dilution, mean ± SD",female BALB/C mice; [6],0.138 ± 0.055 OD
same,"IgA total at 1:2 dilution, mean ± SD",female BALB/C mice; [7],0.853 ± 0.543 OD
same,"Total IgG at 1:32 dilution, mean ± SD",female BALB/C mice; [7],0.141 ± 0.044 OD
same,"IgA total at 1:2 dilution, mean ± SD",female BALB/C mice; [8],0.650 ± 0.276 OD
same,"Total IgG at 1:32 dilution, mean ± SD",female BALB/C mice; [8],0.121 ± 0.055 OD
"5′GGGAGG3′ [N6B] (DNA, backbone not given here; further chemistry not fully specified)",Percentage of DC showing a FCS > 500 units and a SSC > 400 units,Human dendritic cells [1]; DC isolated from individual A,4%
same,Percentage of DC showing a FCS > 500 units and a SSC > 400 units,Human dendritic cells [1]; DC isolated from individual B,17%
same,Percentage of DC showing a FCS > 500 units and a SSC > 400 units,Human dendritic cells [1]; DC isolated from individual C,36%
same,IFN-gamma production by DC (fold increase compared to untreated DC),Human dendritic cells [2]; DC isolated from individual A,1.1 fold
same,IFN-gamma production by DC (fold increase compared to untreated DC),Human dendritic cells [2]; DC isolated from individual B,1.0 fold
same,IFN-gamma production by DC (fold increase compared to untreated DC),Human dendritic cells [2]; DC isolated from individual C,1.1 fold
same,The percentage of CD40^hi DC following treatment,Human dendritic cells [3]; DC from individual B,28** %
same,The percentage of CD40^hi DC following treatment,Human dendritic cells [3]; DC from individual C,15%
same,The percentage of CD80^hi DC following treatment,Human dendritic cells [4]; DC from individual B,4%
same,The percentage of CD80^hi DC following treatment,Human dendritic cells [4]; DC from individual C,4%
same,"IgA total at 1:2 dilution, mean ± SD",female BALB/C mice; [6],0.549 ± 0.242 OD
same,"Total IgG at 1:32 dilution, mean ± SD",female BALB/C mice; [6],0.104 ± 0.030 OD
same,"IgA total at 1:2 dilution, mean ± SD",female BALB/C mice; [7],0.333 ± 0.156 OD
same,"Total IgG at 1:32 dilution, mean ± SD",female BALB/C mice; [7],0.225 ± 0.135 OD
same,"IgA total at 1:2 dilution, mean ± SD",female BALB/C mice; [8],0.492 ± 0.074 OD
same,"Total IgG at 1:32 dilution, mean ± SD",female BALB/C mice; [8],0.120 ± 0.057 OD
5′GGGTGG3′ [N3A],Percentage of DC showing a FCS > 500 units and a SSC > 400 units,Human dendritic cells [1]; DC isolated from individual A,8%
same,Percentage of DC showing a FCS > 500 units and a SSC > 400 units,Human dendritic cells [1]; DC isolated from individual B,15%
same,Percentage of DC showing a FCS > 500 units and a SSC > 400 units,Human dendritic cells [1]; DC isolated from individual C,31%
same,IFN-gamma production by DC (fold increase compared to untreated DC),Human dendritic cells [2]; DC isolated from individual A,1.0 fold
same,IFN-gamma production by DC (fold increase compared to untreated DC),Human dendritic cells [2]; DC isolated from individual B,1.0 fold
same,IFN-gamma production by DC (fold increase compared to untreated DC),Human dendritic cells [2]; DC isolated from individual C,1.0 fold
same,The percentage of CD40^hi DC following treatment,Human dendritic cells [3]; DC from individual B,36** %
same,The percentage of CD40^hi DC following treatment,Human dendritic cells [3]; DC from individual C,20%
same,The percentage of CD80^hi DC following treatment,Human dendritic cells [4]; DC from individual B,12%
same,The percentage of CD80^hi DC following treatment,Human dendritic cells [4]; DC from individual C,18%
same,The percentage of OX-2^hi DC following treatment,Human dendritic cells [5]; 1.0 μg,61%
same,The percentage of OX-2^hi DC following treatment,Human dendritic cells [5]; 10.0 μg,51** %
same,The percentage of OX-2^hi DC following treatment,Human dendritic cells [5]; 100.0 μg,51** %
5′GGGTGG3′ [N3B],Percentage of DC showing a FCS > 500 units and a SSC > 400 units,Human dendritic cells [1]; DC isolated from individual A,28%
same,Percentage of DC showing a FCS > 500 units and a SSC > 400 units,Human dendritic cells [1]; DC isolated from individual B,25%
same,Percentage of DC showing a FCS > 500 units and a SSC > 400 units,Human dendritic cells [1]; DC isolated from individual C,28%
same,IFN-gamma production by DC (fold increase compared to untreated DC),Human dendritic cells [2]; DC isolated from individual A,2.0 fold
same,IFN-gamma production by DC (fold increase compared to untreated DC),Human dendritic cells [2]; DC isolated from individual B,4.5 fold
same,IFN-gamma production by DC (fold increase compared to untreated DC),Human dendritic cells [2]; DC isolated from individual C,1.3 fold
same,The percentage of CD40^hi DC following treatment,Human dendritic cells [3]; DC from individual B,33** %
same,The percentage of CD40^hi DC following treatment,Human dendritic cells [3]; DC from individual C,14%
same,The percentage of CD80^hi DC following treatment,Human dendritic cells [4]; DC from individual B,5%
same,The percentage of CD80^hi DC following treatment,Human dendritic cells [4]; DC from individual C,3%

# Source: patent publication US7371734B2, “Oligonucleotide compositions and their use for the modulation of immune responses” (Bioniche Life Sciences Inc., priority 2002, dated 2008)
